Legend:
rats [1] = test: Bioavailability studies on rats (liver and kidney functions, blood picture, lipid profile); type: in vivo
Text: The study on rats included five groups, group 1 control, 2 receiving cu, group.2 pyrazinic, group 3 complex with large dose, & group 5 receiving complex with small dose.

[2] = test system: muscle weakness (muscle dystrophies, post stroke weakness); test: Clinical trials for treatment of weakness of muscles; type: in vivo, human
Text: The complex used in treatment of muscle weakness for different underlying causes (muscle dystrophies post stroke weakness). […] When the patient reaches the optimum dose, onset of improvement in muscle power is observed within hours of drug intake.

[3] = test system: male infertility (sperm count, motility); test: Male infertility study, 20 patients; type: in vivo, human
[4] = Physical properties: stability of the complex; type: physicochemical; details: solid, when well-dried
[5] = test system: stem cell differentiation; test: In vivo stem cell, CD4 and CD8 counts before and during medication; details: before and at regular intervals of medication
Text: We hypothesized that the drug may have a role in stimulating the stem cells present in the various organs to differentiate. […] In vivo we measured the stem cell count together with CD8 and CD4 cells before, and at regular intervals of medication.

rats [6] = test: Toxicity of the complex (LD50, mortality within 24 hrs); type: in vivo
Protocol: Seventy two rats (250+/−2.0 g b.wt) were randomly located into 12 groups of 6 rats each.
Mortality in each group were recorded within 24 hrs.

fatigue = test: Clinical trials for treatment of fatigue in humans; type: in vivo
[7] = Physical properties: solubility of the complex; type: physicochemical
Text: Solubility: the complex is insoluble in non-polar solvents, e.g. benzene, carbon tetrachloride, etc., and insoluble in polar solvents: water, methanol, ethanol, acetone, but soluble in these solvents upon heating in inert atmosphere, to prevent oxidation.

dilated Cardiomyopathy = test: Clinical trials in cardiomyopathy; type: in vivo, human; details: clinically and in ECHO cardiographic measurements
Text: Improvement is shown both clinically and in the ECHO cardiographic measurements.

O=C(O)c1cnccn1 [pyrazinic, pyrazinic acid, reference compound]
Lipid profile (rats [1]): didn't show significant difference | liver and kidney functions versus control (rats [1]): no significant difference

[CuCI (pyrazinic acid)2].2H2O [complex]
Clinical improvement in DMS patients ([2]; affected by age, weight and degree of dystrophy): dose dependant | onset of improvement in muscle power ([2]; at optimum dose, after drug intake): within hours | sperm motility ([3]; all cases): significant improvement of motility | azospermic patients who got healthy babies ([3]; among the responders): two of them got healthy babies | oligospermia cases who got healthy babies ([3]; human, in vivo): four cases got also healthy babies | sperm count in azospermic patients after treatment ([3]; responders, within 6 weeks of treatment): 1.5-3 millions/hpf | sperm count in Oligospermia ([3]; within 1 month of treatment): doubling of the count | azospermic patients whose count increased ([3]; within 6 weeks of treatment): seven out of nine | Stability [4]: sufficiently stable when well-dried | CD4/CD8 [5]: no disturbance | CD4 and CD8 number [5]: increase | stem cell count [5]: significant decrease | LD50 (intrapperitoneally) (rats [6]; intraperitoneal): 128 mg/kg | LD50 (oral) (rats [6]; oral): 1104.17 mg/kg | muscle pain (fatigue; all types of fatigue): relieved the muscle pain | physical activity and productivity (fatigue; all types of fatigue): increased the physical activity and productivity | agonizing fatigue in Parkinsonism, myositis, disseminated sclerosis (fatigue; human, in vivo): improves markedly | Lipid profile (rats [1]): didn't show significant difference | liver and kidney functions versus control (rats [1]): no significant difference | lymphocytic count (complete blood picture) (rats [1]; large and small dose groups, not exceeding the normal range): increase of lymphocytic count | Solubility in non-polar solvents ([7]; e.g. benzene, carbon tetrachloride): insoluble | Solubility in polar solvents upon heating ([7]; upon heating in inert atmosphere): soluble | Solubility in polar solvents ([7]; water, methanol, ethanol, acetone): insoluble | cases improved, dilated cardiomyopathy due to other causes (dilated Cardiomyopathy): 80% | improvement of dilated Cardiomyopathy secondary to Duchenne muscle dystrophy (dilated Cardiomyopathy): improved all cases

From patent publication US20110183951A1, “Copper (1) Complex” (priority 2006, published 2011)
